How the values were obtained:
Type in all cases: physicochemical
[1] = SPAAC reaction kinetics of 101 with benzyl azide monitored by 1H-NMR; conditions: 101 with benzyl azide (1:1), 20 mM, CD3CN, 25° C.
Method: (§1) To evaluate the feasibility of compound 101 as a reagent for the SPAAC-based fluorescence labeling, its reaction scope and kinetics using benzyl azide as a model substrate was first studied. The SPAAC reaction of 101 with benzyl azide in acetonitrile was completed in 2 h at room temperature to give triazole 111 in 95% yield (Scheme 100). The reactivity of 101 with benzyl azide (1:1) in CD3CN was determined by integration of multiple chemical shifts in the ^1H-NMR spectrum to yield a second-order rate constant of 0.012 M^−1s^−1 at 25° C. We also observed the cycloaddition reaction between 101 and N-azidoacetylmannosamine (ManNAz), proceeding similarly to give triazole 112 with a second-order rate constant of 0.010 M^−1s^−1 at 25° C. in a solution of CD3OD-D2O (5:1, v/v) (FIGS. 17 and 18).
(§2) Part A: Compound 101 and benzyl azide were predissolved in CD3CN, and then mixed at equimolar concentration of 20 mM. The reaction was monitored by ^1H-NMR analysis over a period of 1 h. The concentration of each component was determined, based on the concentration of initial compound 101, by integration at multiple chemical shifts in the ^1H-NMR spectrum. […] (M^−1) vs. time (sec), a second order rate constant in unit of M^−1s^−1 was determined using linear regression analysis. […]
FIG. 17 describes a Plot of 1/[101] vs. time for the reaction of compound 101 and benzyl azide in CD3CN as monitored by ^1H-NMR.

[2] = SPAAC reaction kinetics of 101 with N-azidoacetylmannosamine monitored by 1H-NMR; conditions: 20 mM, CD3OD-D2O (5:1, v/v), 25° C.
Method: as §1, with “We also observed the cycloaddition reaction between 101 and N-azidoacetylmannosamine (ManNAz), proceeding similarly to give triazole 112 with a second-order rate constant of 0.010 M^−1s^−1 at 25° C. in a solution of CD3OD-D2O (5:1, v/v) (FIGS. 17 and 18).” left out
as §2, with “B:” for “A:”, “N-azidoacetylmannosamine” for “benzyl azide”, “CD3OD/D2O (5:1, v/v),” for “CD3CN,”
FIG. 18 describes a Plot of 1/[101] vs. time for the reaction of compound 101 and N-azidoacetylmannosamine in a solution of CD3OD-D2O (5:1, v/v) as monitored by ^1H-NMR.

[3] = Absorption and fluorescence spectroscopy under simulated physiological conditions; conditions: PBS buffer containing 10% DMSO, pH 7.4
Method: Formation of triazoles 111 and 112 were accompanied by a significant increase in fluorescence intensity with a large Stokes shift into a standard range for coumarin emission (FIG. 16a).
(§3) FIG. 16 describes (a) Absorption and Fluorescence emission spectra (λex=330 nm) of 101 (black), 111 (blue) and 112 (red) (45 μM, PBS buffer containing 10% DMSO, pH 7.4). (b) Time course of normalized fluorescence intensity at 435 nm (λex=330 nm) for the ligation reaction of 101 (30 μM) with N-azidoacetylmannosamine (30 μM) in PBS buffer containing 10% DMSO.

[4] = Fluorescence time course of ligation of 101 with ManNAz; conditions: 101 (30 μM) with ManNAz (30 μM), PBS buffer containing 10% DMSO
Method: To probe the SPAAC reaction under the conditions that would be more typical for biomolecule labeling, we investigated the fluorescence response and time course for the reaction of 101 with ManNAz.
as §3
A solution of probe 101 (0.075 μmol) and N-azidoacetylmannosamine (0.075 μmol) in a mixture of 10% DMSO in PBS buffer (2.5 mL) was incubated at 37° C. The fluorescence emission intensity at 435 nm upon excitation at 330 nm was monitored in 5 min intervals. For each point the fluorescence intensity was measured over a period of 5 sec and averaged over a total of 3 points. In a control experiment the same conditions were used except that N-acetylmannosamine (0.075 μmol) was added to the solution.

Compound: O=c1ccc2cc3c(cc2o1)C#CCCCC3 [Compound 101, 6,7,8,9-Tetrahydro-10,11-didehydro-cycloocta[g]chromen-2(2H)-one]
- second-order rate constant [1]: 0.012 M⁻¹ s⁻¹
- second-order rate constant [2]: 0.010 M⁻¹ s⁻¹
- Absorption (λmax, nm) [3]: 336 nm
- Stokes shift [3]: 5070 cm⁻¹
- Emission (λmax, nm) ([3]; excitation at 330 nm): 405 nm
- ε (M^−1cm^−1), extinction coefficient ([3]; measured at 340 nm): 7800 M⁻¹ cm⁻¹
- Φf, fluorescence quantum yield ([3]; quinine sulfate (Φf = 0.54 ± 0.03) as standard): 0.011
- time for fluorescence intensity to reach a plateau ([4]; 435 nm (λex=330 nm)): less than 1 h
- ManNAz consumed ([4]; in 40 min): more than 90%

Source: patent US10119972B2, “Reactive labelling compounds and uses thereof” (Academia Sinica, priority 2014, dated 2018)
